Measurements as given in patent publication US20230331673A1, “COMPOSITION OF COMPOUNDS THAT MODULATE CELL METABOLISM AND METHODS OF USE” (CRESCENTA BIOSCIENCES, priority 2020, published 2023).

The compounds below were run on differentiated 3T3-L1 mouse adipocyte cells (assay: Adipocyte glucose consumption in differentiated 3T3-L1 mouse adipocyte cells (loss of glucose from medium, colorimetric)). Settings: compound 10 μM, 22 to 24 hours, differentiated 3T3-L1 adipocytes, compound/DMSO, read-out: Glucose consumption (fold change) Mean.
Type: cell-based
Description: Activity of compounds on adipocyte glucose consumption was tested in differentiated 3T3-L1 mouse adipocyte cells. 3T3-L1 preadipocytes (ATCC) were routinely cultured in a growth medium composed of DMEM high-glucose (Sigma), 10% FBS (Gibco), 10 U/ml penicillin and 10 μg/ml streptomycin (P/S; Gibco). To induce adipogenic differentiation, a confluent layer of 3T3-L1 cells were incubated with the growth medium containing 2 μM rosiglitazone, 1 μM dexamethasone, 500 μM IBMX, and 1 μg/ml insulin (Sigma). Forty-eight (48) hours later (on day 2) and on days 4 and 6, medium of the cells was replaced with fresh medium containing 1 μg/ml insulin. On days 8 and 10, the medium was refreshed with regular growth medium and addition of insulin was omitted. On day 11 or 12, medium of the cells were replaced with fresh medium containing either the indicated compounds (10 μM) or the vehicle in which the compounds were dissolved (DMSO). The final concentration of DMSO was 0.1% (v/v). Growth medium containing 0.1% DMSO was incubated in culture wells containing no cells and used as control. Twenty-two to 24 hours later, medium was harvested and subjected to centrifugation at 10,000 g for 5 min. Glucose concentration in the supernatants was determined using a colorimetric assay (Glucose Assay Kit I, Eton Biosciences). Glucose consumption in compound and vehicle treated cells was measured as loss of glucose from the culture medium and represented as mean fold change (compound/DMSO) t standard deviation (SD).

Structure (SMILES) | fold induction at 10 µM
CCCCC1CCCc2c1n(Cc1cccc(C(N)=O)c1)c1c(C(=O)O)cccc21 (stereo not shown) [1-butyl-9-[(3-carbamoylphenyl)methyl]-2,3,4,9-tetrahydro-1H-carbazole-8-carboxylic acid] | 1.02
CCCCC1CCCc2c1n(Cc1cccc(C#N)c1)c1c(C(=O)O)cccc21 (stereo not shown) [1-butyl-9-[(3-cyanophenyl)methyl]-2,3,4,9-tetrahydro-1H-carbazole-8-carboxylic acid] | 1.14
CCCCC1CCCc2c(n(Cc3cccc(C(N)=O)c3)c3c(C(=O)NCC(=O)O)cccc23)C1 (stereo not shown) [2-({7-butyl-5-[(3-carbamoylphenyl)methyl]-5H,6H,7H,8H,9H,10H-cyclohepta[b]indol-4-yl}formamido)acetic acid] | 0.9
CCCCC1CCCc2c(n(Cc3cccc(C#N)c3)c3c(C(=O)NCC(=O)O)cccc23)C1 (stereo not shown) [2-({7-butyl-5-[(3-cyanophenyl)methyl]-5H,6H,7H,8H,9H,10H-cyclohepta[b]indol-4-yl}formamido)acetic acid] | 1.2
CCCCC1Cc2c(n(Cc3cccc(C(N)=O)c3)c3c(C(=O)O)cccc23)C1 (stereo not shown) [2-butyl-4-[(3-carbamoylphenyl)methyl]-1H,2H,3H,4H-cyclopenta[b]indole-5-carboxylic acid] | 1.14
CCCCC1Cc2c(n(Cc3cccc(C#N)c3)c3c(C(=O)O)cccc23)C1 (stereo not shown) [2-butyl-4-[(3-cyanophenyl)methyl]-1H,2H,3H,4H-cyclopenta[b]indole-5-carboxylic acid] | 1.28
CCCCC1CCc2c(n(Cc3cccc(C(N)=O)c3)c3c(C(=O)O)cccc23)C1 (stereo not shown) [2-butyl-9-[(3-carbamoylphenyl)methyl]-2,3,4,9-tetrahydro-1H-carbazole-8-carboxylic acid] | 1.1
CCCCCCC1CCc2c(n(Cc3ccnc(OC)c3)c3c(C(=O)O)cccc23)C1 (stereo not shown) [2-hexyl-9-[(2-methoxypyridin-4-yl)methyl]-2,3,4,9-tetrahydro-1H-carbazole-8-carboxylic acid] | 1.19
CCCCCCC1CCc2c(n(Cc3ccccc3C)c3c(C(=O)O)cccc23)C1 (stereo not shown) [2-hexyl-9-[(2-methylphenyl)methyl]-2,3,4,9-tetrahydro-1H-carbazole-8-carboxylic acid] | 1.23
CCCCCCC1CCc2c(n(Cc3cccc(O)c3)c3c(C(=O)O)cccc23)C1 (stereo not shown) [2-hexyl-9-[(3-hydroxyphenyl)methyl]-2,3,4,9-tetrahydro-1H-carbazole-8-carboxylic acid] | 1.11
CCCCCCC1CCc2c(n(Cc3cccnc3)c3c(C(=O)O)cccc23)C1 (stereo not shown) [2-hexyl-9-[(pyridin-3-yl)methyl]-2,3,4,9-tetrahydro-1H-carbazole-8-carboxylic acid] | 1.21
CCCCC1CCc2c1n(Cc1cccc(C(N)=O)c1)c1c(C(=O)O)cccc21 (stereo not shown) [3-butyl-4-[(3-carbamoylphenyl)methyl]-1H,2H,3H,4H-cyclopenta[b]indole-5-carboxylic acid] | 1.15
CCCCC1CCc2c1n(Cc1cccc(C#N)c1)c1c(C(=O)O)cccc21 (stereo not shown) [3-butyl-4-[(3-cyanophenyl)methyl]-1H,2H,3H,4H-cyclopenta[b]indole-5-carboxylic acid] | 1.21
CCCCC1CCc2c(c3cccc(C(=O)O)c3n2Cc2cccc(C(N)=O)c2)C1 (stereo not shown) [3-butyl-9-[(3-carbamoylphenyl)methyl]-2,3,4,9-tetrahydro-1H-carbazole-8-carboxylic acid] | 1.09
CCCCC1CCc2c(c3cccc(C(=O)O)c3n2Cc2cccc(C#N)c2)C1 (stereo not shown) [3-butyl-9-[(3-cyanophenyl)methyl]-2,3,4,9-tetrahydro-1H-carbazole-8-carboxylic acid] | 1.14
CCCCCC1Cc2c(n(Cc3cccc(C(N)=O)c3)c3c(C(=O)O)cccc23)C1 (stereo not shown) [4-[(3-carbamoylphenyl)methyl]-2-pentyl-1H,2H,3H,4H-cyclopenta[b]indole-5-carboxylic acid] | 0.68
CCC1CCc2c1n(Cc1cccc(C(N)=O)c1)c1c(C(=O)O)cccc21 (stereo not shown) [4-[(3-carbamoylphenyl)methyl]-3-ethyl-1H,2H,3H,4H-cyclopenta[b]indole-5-carboxylic acid] | 1.02
CCCC1CCc2c1n(Cc1cccc(C(N)=O)c1)c1c(C(=O)O)cccc21 (stereo not shown) [4-[(3-carbamoylphenyl)methyl]-3-propyl-1H,2H,3H,4H-cyclopenta[b]indole-5-carboxylic acid] | 1.18
CCCCCC1Cc2c(n(Cc3cccc(C#N)c3)c3c(C(=O)O)cccc23)C1 (stereo not shown) [4-[(3-cyanophenyl)methyl]-2-pentyl-1H,2H,3H,4H-cyclopenta[b]indole-5-carboxylic acid] | 1.18

Structure (SMILES) | fold induction at 10 µM
CCC1CCc2c1n(Cc1cccc(C#N)c1)c1c(C(=O)O)cccc21 (stereo not shown) [4-[(3-cyanophenyl)methyl]-3-ethyl-1H,2H,3H,4H-cyclopenta[b]indole-5-carboxylic acid] | 1.12
CCCC1CCc2c1n(Cc1cccc(C#N)c1)c1c(C(=O)O)cccc21 (stereo not shown) [4-[(3-cyanophenyl)methyl]-3-propyl-1H,2H,3H,4H-cyclopenta[b]indole-5-carboxylic acid] | 1.38
CCCCC1CCCc2c1c1cccc(C(=O)O)c1n2Cc1cccc(C(N)=O)c1 (stereo not shown) [4-butyl-9-[(3-carbamoylphenyl)methyl]-2,3,4,9-tetrahydro-1H-carbazole-8-carboxylic acid] | 1.35
CCCCC1CCCc2c1c1cccc(C(=O)O)c1n2Cc1cccc(C#N)c1 (stereo not shown) [4-butyl-9-[(3-cyanophenyl)methyl]-2,3,4,9-tetrahydro-1H-carbazole-8-carboxylic acid] | 1.28
CCCCCCC1CCCc2c(n(Cc3ccc4ncoc4c3)c3c(C(=O)O)cccc23)C1 (stereo not shown) [5-[(1,3-benzoxazol-6-yl)methyl]-7-hexyl-5H,6H,7H,8H,9H,10H-cyclohepta[b]indole-4-carboxylic acid] | 1.17
CCCCCCC1CCCc2c(n(Cc3ccccc3C(N)=O)c3c(C(=O)O)cccc23)C1 (stereo not shown) [5-[(2-carbamoylphenyl)methyl]-7-hexyl-5H,6H,7H,8H,9H,10H-cyclohepta[b]indole-4-carboxylic acid] | 0.97
CCCCCCC1CCCc2c(n(Cc3ccccc3F)c3c(C(=O)O)cccc23)C1 (stereo not shown) [5-[(2-fluorophenyl)methyl]-7-hexyl-5H,6H,7H,8H,9H,10H-cyclohepta[b]indole-4-carboxylic acid] | 1.17
CCCCCCC1CCCc2c(n(Cc3c(C)noc3C)c3c(C(=O)O)cccc23)C1 (stereo not shown) [5-[(3,5-dimethyl-1,2-oxazol-4-yl)methyl]-7-hexyl-5H,6H,7H,8H,9H,10H-cyclohepta[b]indole-4-carboxylic acid] | 0.95
CCC1CCCc2c(n(Cc3cccc(C(N)=O)c3)c3c(C(=O)O)cccc23)C1 (stereo not shown) [5-[(3-carbamoylphenyl)methyl]-7-ethyl-5H,6H,7H,8H,9H,10H-cyclohepta[b]indole-4-carboxylic acid] | 0.96
CCCCCCC1CCCc2c(n(Cc3cccc(C(N)=O)c3)c3c(C(=O)O)cccc23)C1 (stereo not shown) [5-[(3-carbamoylphenyl)methyl]-7-hexyl-5H,6H,7H,8H,9H,10H-cyclohepta[b]indole-4-carboxylic acid] | 1.26
CCCCCCCCC1CCCc2c(n(Cc3cccc(C(N)=O)c3)c3c(C(=O)O)cccc23)C1 (stereo not shown) [5-[(3-carbamoylphenyl)methyl]-7-octyl-5H,6H,7H,8H,9H,10H-cyclohepta[b]indole-4-carboxylic acid] | 1.13
CCCCCC1CCCc2c(n(Cc3cccc(C(N)=O)c3)c3c(C(=O)O)cccc23)C1 (stereo not shown) [5-[(3-carbamoylphenyl)methyl]-7-pentyl-5H,6H,7H,8H,9H,10H-cyclohepta[b]indole-4-carboxylic acid] | 1.27
CCCC1CCCc2c(n(Cc3cccc(C(N)=O)c3)c3c(C(=O)O)cccc23)C1 (stereo not shown) [5-[(3-carbamoylphenyl)methyl]-7-propyl-5H,6H,7H,8H,9H,10H-cyclohepta[b]indole-4-carboxylic acid] | 1.06
CCC1CCCCc2c1c1cccc(C(=O)O)c1n2Cc1cccc(C(N)=O)c1 (stereo not shown) [5-[(3-carbamoylphenyl)methyl]-10-ethyl-5H,6H,7H,8H,9H,10H-cyclohepta[b]indole-4-carboxylic acid] | 0.99
CCCCCC1CCCCc2c1c1cccc(C(=O)O)c1n2Cc1cccc(C(N)=O)c1 (stereo not shown) [5-[(3-carbamoylphenyl)methyl]-10-pentyl-5H,6H,7H,8H,9H,10H-cyclohepta[b]indole-4-carboxylic acid] | 1.27
CCCC1CCCCc2c1c1cccc(C(=O)O)c1n2Cc1cccc(C(N)=O)c1 (stereo not shown) [5-[(3-carbamoylphenyl)methyl]-10-propyl-5H,6H,7H,8H,9H,10H-cyclohepta[b]indole-4-carboxylic acid] | 1.02
CCCCCCC1CCCc2c(n(Cc3cccc(C(=O)O)c3)c3c(C(=O)O)cccc23)C1 (stereo not shown) [5-[(3-carboxyphenyl)methyl]-7-hexyl-5H,6H,7H,8H,9H,10H-cyclohepta[b]indole-4-carboxylic acid] | 1.15
CCCCCCC1CCCc2c(n(Cc3cccc(Cl)c3)c3c(C(=O)O)cccc23)C1 (stereo not shown) [5-[(3-chlorophenyl)methyl]-7-hexyl-5H,6H,7H,8H,9H,10H-cyclohepta[b]indole-4-carboxylic acid] | 1.18
